Results reported in patent US20220296595A1, “CDK INHIBITORS” (QILU REGOR THERAPEUTICS INC., priority 2019, published 2022).
pIC50: −log10 of the molar value. Read-outs that look alike come from different tables or passages of the source.

Experiments:
[1] = target: T1, CDK2/CyclinE1 (Homo sapiens, UniProt P24941); experiment: Assay for inhibition of CDK2/CyclinE1 (Caliper microfluidic kinase assay); format: biochemical; conditions: read-out: CDK2 IC50
T1 construct: purchased SignalChem C29-18G
In short: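 Caliper microfluidic mobility-shift assay: 5 nM CDK2/CyclinE1, 100 μM ATP, 5 μM FL-18 peptide (5-FAM-QSPKKG-NH2) in pH 7.5 HEPES buffer with MgCl2, DTT, BSA, Triton X-100. Incubated 3 hours at room temperature, EDTA-stopped; IC50 from 4-parameter sigmoidal fit.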

[2] = target: T2, CDK4/CyclinD1 (Homo sapiens, UniProt P11802); experiment: Assay for inhibition of CDK4/CyclinD1 (Caliper microfluidic kinase assay); format: biochemical
T2 construct: purchased Thermofisher PR8064A
In short: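 Caliper microfluidic mobility-shift assay tracking phosphorylation of 1 μM FL-34 peptide by 1 nM CDK4/CyclinD1 with 200 μM ATP in HEPES pH 7.5 buffer with 10 mM MgCl2. Reaction ran 3 h at room temperature, was stopped with EDTA, and IC50 came from a 4-parameter sigmoidal fit.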

[3] = target: T3, CDK6/CyclinD3 (Homo sapiens, UniProt Q00534); experiment: Assay for inhibition of CDK6/CyclinD3 (Caliper microfluidic kinase assay); format: biochemical
T3 construct: purchased Carna 04-107
In short: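 Caliper mobility-shift readout of FAM-labelled peptide (FL-34, 1 μM) phosphorylation by 2 nM CDK6/CyclinD3 at 300 μM ATP in HEPES pH 7.5 buffer with MgCl2, DTT; 3 h at room temperature, EDTA stop. IC50 from 4-parameter sigmoidal fit.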

[4] = system: T47D breast cancer cells; experiment: Anti-proliferation assay in T47D cell (Cyquant, day 6); format: cell-based, human; conditions: Homo sapiens, T47D, read-out: T47D IC50
In short: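 Cells were grown in RPMI 1640 with 10% FBS at 37 °C and dosed the day after plating at ten concentrations, 10 μM to 0.51 nM in 3-fold steps. CyQuant fluorescence (ex 485/em 535 nm) was read on day 6. IC50 was fitted from baseline-subtracted viability curves, with the baseline read after overnight culture.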

[5] = system: phosphorylation of Retinoblastoma Protein (pRb Ser807/811 or Ser780) in T47D cells; experiment: Inhibition of phosphorylation of retinoblastoma protein (pRb) in T47D cell (ELISA); format: cell-based, human; conditions: Homo sapiens, T47D, read-out: Phospho T47D Ser807 IC50, pRb Ser807 phosphorylation, T47D cells
Description: T47D breast cancer cells from American Type Culture Collection (ATCC, HTB-133) were plated at 40,000 cells/well in 96-well plates, and were incubated in RPMI 1640 medium (Gibco, 31800105) with 10% Fetal Bovine Serum (FBS, Biowest, FB-1058). Cells were then allowed to adhere overnight at 37° C., 5% CO2. The following day, compounds were titrated in a 3-fold dilution scheme, and the highest compound concentration tested was […]. After 24 hours incubation with compounds, cells were lysed in ice-cold lysis buffer containing phosphatase inhibitor cocktail and 1 mM PMSF. Cell lysates (50 μL/well) were then transferred to ELISA plates (pRb Ser807/811 ELISA kit, Cell Signaling, 13152 or pRb Ser780 ELISA kit, Cell Signaling, 13016)). Plates were incubated overnight at 4° C., with constant slow speed shaking. After incubation, plates were washed following manufacturer's recommendations, and then 100 μL reconstituted detection antibody was added to each well and incubated for 1 hour at 37° C. After incubation, plates were washed, and then 100 μL reconstituted HRP-linked secondary antibody was added to each well and incubated for 30 mins at 37° C. After incubation, plates were washed. Then, 100 μL TMB substrate was added to each well and incubated for 10 min at 37° C. or 30 min at 25° C. Finally, 100 μL of STOP solution was added to each well and mixed gently for a few seconds. Plates were read on the Envision plate reader (PerkinElmer, 2104-0010) using the 96-well […] mode. IC50 values were calculated using 4 parameter sigmoidal dose-response model of Xlfit5/GraphPad Prism 5 software.

T2 sequence (P11802 whole entry): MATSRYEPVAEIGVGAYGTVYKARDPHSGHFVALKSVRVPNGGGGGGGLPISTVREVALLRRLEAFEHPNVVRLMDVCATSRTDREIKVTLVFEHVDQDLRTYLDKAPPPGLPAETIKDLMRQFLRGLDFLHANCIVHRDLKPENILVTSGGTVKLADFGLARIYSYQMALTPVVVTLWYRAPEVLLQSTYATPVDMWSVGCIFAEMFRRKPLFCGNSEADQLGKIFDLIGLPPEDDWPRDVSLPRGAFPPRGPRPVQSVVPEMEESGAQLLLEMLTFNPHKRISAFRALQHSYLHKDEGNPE
T2 sequence (P24385 whole entry partner): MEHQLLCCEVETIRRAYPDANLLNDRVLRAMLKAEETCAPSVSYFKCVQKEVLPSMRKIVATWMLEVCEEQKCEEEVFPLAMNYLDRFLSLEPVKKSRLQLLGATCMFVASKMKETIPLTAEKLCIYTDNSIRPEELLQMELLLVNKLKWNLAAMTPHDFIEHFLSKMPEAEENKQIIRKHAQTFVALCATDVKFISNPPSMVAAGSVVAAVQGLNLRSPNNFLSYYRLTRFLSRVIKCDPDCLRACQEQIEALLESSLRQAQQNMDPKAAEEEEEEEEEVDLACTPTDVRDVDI
T3 sequence (Q00534 whole entry): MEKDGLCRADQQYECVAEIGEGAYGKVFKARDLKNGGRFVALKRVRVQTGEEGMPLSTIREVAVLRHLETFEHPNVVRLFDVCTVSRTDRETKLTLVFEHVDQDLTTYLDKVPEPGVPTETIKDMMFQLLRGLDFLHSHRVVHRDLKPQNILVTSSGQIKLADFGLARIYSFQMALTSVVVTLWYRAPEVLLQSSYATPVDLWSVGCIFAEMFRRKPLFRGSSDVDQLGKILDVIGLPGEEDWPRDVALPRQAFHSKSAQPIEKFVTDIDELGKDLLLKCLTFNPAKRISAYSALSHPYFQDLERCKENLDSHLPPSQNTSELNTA
T3 sequence (P30281 whole entry partner): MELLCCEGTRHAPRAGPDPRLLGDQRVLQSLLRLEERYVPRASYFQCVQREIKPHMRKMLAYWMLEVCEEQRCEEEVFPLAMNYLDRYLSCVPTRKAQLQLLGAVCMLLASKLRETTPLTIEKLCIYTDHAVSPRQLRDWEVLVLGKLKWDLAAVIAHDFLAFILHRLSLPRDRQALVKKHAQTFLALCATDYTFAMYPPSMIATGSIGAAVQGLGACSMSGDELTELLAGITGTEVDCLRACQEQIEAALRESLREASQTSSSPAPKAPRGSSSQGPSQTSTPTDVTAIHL

| Compound | pIC50 ([1]; CDK2/CyclinE1, 100 μM ATP) | pIC50 ([2]; CDK4/CyclinD1, 200 μM ATP) | pIC50 ([3]; CDK6/CyclinD3, 300 μM ATP) | pIC50 ([4]; anti-proliferation, T47D cells) | pIC50 [5] | pIC50 ([1]; CDK2/CyclinE1) | pIC50 ([2]; CDK4/CyclinD1) | pIC50 ([3]; CDK6/CyclinD3) | pIC50 [4] |
| --- | --- | --- | --- | --- | --- | --- | --- | --- | --- |
| COc1nc(-c2ccnc(Nc3ccc(N4CCNCC4=O)c(F)c3)n2)cc2c1ncn2C(C)C [compound 116] | 7.00 to 8.00 | > 8.00 | 7.00 to 8.00 | 6.30 to 7.00 | > 7.00 | – | – | – | – |
| CC(C)c1cnn2ccc(-c3ccnc(Nc4ccc(N5CCC(N6CC(F)C6)CC5=O)cn4)n3)cc12 (stereo not drawn) [compound 162] | 7.00 to 8.00 | > 8.00 | 7.00 to 8.00 | > 7.00 | > 7.00 | – | – | – | – |
| CC1(C)COc2c(F)cc(-c3ccnc(Nc4ccc(N5CCNCC5=O)cn4)n3)cc21 [Synthetic Example 59] | 7.00 to 8.00 | > 8.00 | 7.00 to 8.00 | > 7.00 | > 7.00 | – | – | – | – |
| COc1nc(-c2ccnc(Nc3ccc(N4CCC(N(C)C)CC4=O)cn3)n2)cc2c1ncn2C(C)C (stereo not drawn) [compound 91] | – | – | – | > 7.00 | > 7.00 | 6.00 to 7.00 | > 8.00 | > 8.00 | – |
| O=C1CCNCCN1c1ccc(Nc2ncc(F)c(-c3ccn4ncc(C5CC5)c4c3)n2)nc1 [compound 195] | 6.00 to 7.00 | > 8.00 | 7.00 to 8.00 | > 7.00 | > 7.00 | – | – | – | – |
| CC(C)c1cnn2ccc(-c3nc(Nc4ccc(N5CCN(S(C)(=O)=O)CC5=O)cn4)ncc3F)cc12 [compound 51] | 7.00 to 8.00 | > 8.00 | 7.00 to 8.00 | > 7.00 | > 7.00 | – | – | – | – |
| COc1nc(-c2nc(Nc3ccc(N4CCOCC4=O)cn3)ncc2F)cc2c1nc(C)n2C(C)C [compound 98] | – | – | – | > 7.00 | > 7.00 | < 6.00 | > 8.00 | 7.00 to 8.00 | – |
| CCN1CCN(c2ccc(Nc3ncc(F)c(-c4cc5c(nc(C)n5C(C)C)c(OC)n4)n3)nc2)C(=O)C1 [Synthetic Example 128] | < 6.00 | > 8.00 | 7.00 to 8.00 | – | > 7.00 | – | – | – | 6.30 to 7.00 |
| CN(C)C1CCN(c2ccc(Nc3nccc(-c4ccn5ncc(C(C)(C)C)c5c4)n3)nc2)C(=O)C1 (stereo not drawn) [Synthetic Example 175] | > 8.00 | > 8.00 | > 8.00 | > 7.00 | > 7.00 | – | – | – | – |
| COc1nc(-c2nc(Nc3ccc(N4CCC(N(C)C)CC4)cn3)ncc2F)cc2c1ncn2C(C)C [compound 70] | – | – | – | 6.30 to 7.00 | > 7.00 | < 6.00 | > 8.00 | 7.00 to 8.00 | – |
| CC(C)c1cnn2ccc(-c3nc(Nc4ccc(N5CCN(C6CNC6)CCC5=O)cn4)ncc3F)cc12 [compound 42] | 7.00 to 8.00 | > 8.00 | 7.00 to 8.00 | > 7.00 | > 7.00 | – | – | – | – |
| CC(C)c1cnn2ccc(-c3nc(Nc4ccc(N5CCN(CC(F)(F)F)CC5=O)cn4)ncc3F)cc12 [compound 53] | 7.00 to 8.00 | > 8.00 | 7.00 to 8.00 | 6.30 to 7.00 | > 7.00 | – | – | – | – |
| CC1(N)CCN(c2ccc(Nc3nccc(-c4cc(F)c5c(c4)C(C)(C)CO5)n3)nc2)C(=O)C1 (stereo not drawn) [compound 258] | 7.00 to 8.00 | > 8.00 | 7.00 to 8.00 | > 7.00 | > 7.00 | – | – | – | – |
| CC(C)c1cnn2ccc(-c3ccnc(Nc4ccc(S(N)(=O)=O)cc4)n3)cc12 [compound 165] | > 8.00 | 7.00 to 8.00 | 6.00 to 7.00 | > 7.00 | 6.30 to 7.00 | – | – | – | – |
| COc1nc(-c2nc(Nc3ccc(N4CCNCC4=O)cc3F)ncc2F)cc2c1ncn2C(C)C [compound 111] | 7.00 to 8.00 | > 8.00 | 7.00 to 8.00 | 6.30 to 7.00 | 6.30 to 7.00 | – | – | – | – |
| COc1nc(-c2nc(Nc3ccc(N4CCN(C)CC4)cn3)ncc2F)cc2c1nc(C)n2C(C)C [compound 103] | – | – | – | 6.30 to 7.00 | > 7.00 | < 6.00 | 7.00 to 8.00 | 7.00 to 8.00 | – |
| Cc1nc2c(F)nc(-c3ccnc(Nc4ccc(N5CCCC(N(C)C)C5=O)cn4)n3)cc2n1C(C)C (stereo not drawn) [Synthetic Example 301, 3-(dimethylamino)-1-[6-[[4-(4-fluoro-1-isopropyl-2-methyl-imidazo[4,5-c]pyridin-6-yl)pyrimidin-2-yl]amino]-3-pyridyl]piperidin-2-one] | < 6.00 | > 8.00 | > 8.00 | > 7.00 | > 7.00 | – | – | – | – |
| COc1nc(-c2nc(Nc3ccc(N4CCCOCC4=O)cn3)ncc2F)cc2c1nc(C)n2C(C)C [compound 74] | – | – | – | 6.30 to 7.00 | 6.30 to 7.00 | < 6.00 | > 8.00 | 7.00 to 8.00 | – |
| CC(C)c1cnn2ccc(-c3nc(Nc4ccc(N5CCC(NC6CC(F)(F)C6)CC5=O)cn4)ncc3F)cc12 (stereo not drawn) [compound 159] | 7.00 to 8.00 | > 8.00 | 7.00 to 8.00 | > 7.00 | > 7.00 | – | – | – | – |
| COc1nc(-c2nc(Nc3ccc(N4CCNCCC4=O)cn3)ncc2F)cc2c1nc(C)n2C(C)C [compound 112] | < 6.00 | > 8.00 | 7.00 to 8.00 | > 7.00 | 6.30 to 7.00 | – | – | – | – |
| COc1nc(-c2ccnc(Nc3ccc(N4CCN(CCF)CC4)cn3)n2)cc2c1ncn2C(C)C [compound 123] | < 6.00 | > 8.00 | 7.00 to 8.00 | 6.30 to 7.00 | 6.30 to 7.00 | – | – | – | – |
| CC(C)c1cnn2ccc(-c3nc(Nc4ccc(N5CCOCC5=O)cc4F)ncc3F)cc12 [compound 7] | > 8.00 | > 8.00 | 7.00 to 8.00 | 6.30 to 7.00 | 6.30 to 7.00 | – | – | – | – |
| CC(C)c1cnn2ccc(-c3nc(Nc4ccc(N5CCC(N(C)C)CC5=O)cn4)ncc3F)cc12 (stereo not drawn) [compound 3] | 7.00 to 8.00 | > 8.00 | 7.00 to 8.00 | > 7.00 | > 7.00 | – | – | – | – |
| CC(C)n1cnc2c(F)nc(-c3ccnc(Nc4ccc(N5CCC(C)(N)CC5=O)cc4)n3)cc21 (stereo not drawn) [compound 280] | > 8.00 | > 8.00 | > 8.00 | > 7.00 | > 7.00 | – | – | – | – |
| COc1nc(-c2nc(Nc3ccc(N4CCOCC4=O)cn3)ncc2Cl)cc2c1nc(C)n2C(C)C [compound 83] | – | – | – | > 7.00 | > 7.00 | 6.00 to 7.00 | > 8.00 | > 8.00 | – |
| CC(C)c1cnn2ccc(-c3nc(Nc4ccc(N5C(=O)CC6CC5CN6)cn4)ncc3F)cc12 (stereo not drawn) [compound 198] | 7.00 to 8.00 | > 8.00 | 7.00 to 8.00 | > 7.00 | > 7.00 | – | – | – | – |
| CC(C)n1cnc2c(OC(F)F)nc(-c3ccnc(Nc4ccc(N5CCOCC5=O)cn4)n3)cc21 [compound 63] | – | – | – | 6.30 to 7.00 | > 7.00 | 6.00 to 7.00 | > 8.00 | 7.00 to 8.00 | – |
| CC(C)c1cnn2ccc(-c3ccnc(Nc4ccc(N5CCC(N6CCC6)CC5=O)cn4)n3)cc12 (stereo not drawn) [compound 171] | > 8.00 | > 8.00 | 7.00 to 8.00 | > 7.00 | > 7.00 | – | – | – | – |
| COc1nc(-c2ccnc(Nc3ccc(N4CC5CC4CN5)cn3)n2)cc2c1ncn2C(C)C (stereo not drawn) [compound 109] | < 6.00 | > 8.00 | 7.00 to 8.00 | > 7.00 | > 7.00 | – | – | – | – |
| CC(C)c1cnn2ccc(-c3nc(Nc4ccc(N5CCOCC5=O)c(F)c4)ncc3F)cc12 [compound 26] | > 8.00 | > 8.00 | 7.00 to 8.00 | 6.30 to 7.00 | > 7.00 | – | – | – | – |
